PubChem BioAssay (NCI)
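Method: 48-hour compound exposure of cells in 96-well plates, five concentrations, linear interpolation of endpoints. GI50 marks 50% less growth. TGI is the concentration that stops growth completely.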 *1 amine or outer side, *2 acyl side, *3 side chain or, on linkers, in order; H or OH if unused. Where a SMILES comes first, the peptide text is derived from it. [ ]: non-standard residue; d: D form. ξ: configuration not given here. X21 = CC[C@@H](C)C(N[*:1])C(=O)[*:2]; ξR = N=C(N)NCCCC(N)C(=O)O; ξI = CCC(C)C(N)C(=O)O; ξL = CC(C)CC(N)C(=O)O; ξK = NCCCCC(N)C(=O)O; ξV = CC(C)C(N)C(=O)O; ξA = CC(N)C(=O)O

test system: MDA-MB-468 breast; assay: NCI anticancer screen, dose series, 48 h

Q: With `NC1CCC(N[C@@H]2C[C@H]2c2ccccc2)CC1` (some centres undefined) as the molecule, how does the GI50 read?
A: The GI50 was greater than 100000 nM.

Q: And the TGI?
A: The TGI was greater than 100000 nM.

Q: Which GI50 does the source give for `Cc1cc2cn3c4cccnc4[nH]c(=O)c3c2cc1C` here?
A: Its GI50 is 1390 nM.

Q: And the TGI?
A: Its TGI is 2830 nM.

Q: Which GI50 does the source give for `C#C[C@]1(O)CC[C@H]2[C@@H]3CC=C4c5sc(N6CCN(C)CC6)nc5CC[C@]4(C)[C@H]3CC[C@@]21C` here?
A: The GI50 was 2260 nM.

Q: And the TGI?
A: The TGI was 7600 nM.

Q: `Oc1ccc(C#CCOc2ccccc2)cc1CNCCN(Cc1ccccn1)Cc1ccccn1` was tested. Which GI50 did it give?
A: Its GI50 is 1730 nM.

Q: And the TGI?
A: The TGI was 4170 nM.

Q: What does the source list for `CCNCCCn1c2c(c3ccc([N+](=O)[O-])cc3c1=O)C(=O)c1cc(OC)cnc1-2`?
A: GI50: 41.6 nM; TGI: 210 nM

Q: How did the GI50 turn out when `Cn1c(=O)c(Oc2ccccc2)cc2cnc(NC3CCOCC3)nc21` was run?
A: The GI50 was greater than 25000 nM.

Q: And the TGI?
A: Its TGI is greater than 25000 nM.

Q: For `CCC(C)C1NC(=O)C(CC(C)C)NC(=O)C(C)NC(=O)C(C(C)C)NC(=O)C(CCCCN)NC(=O)C(CC(C)C)NC(=O)C(C(C)C)NC(=O)[C@H](C)NC(=O)C(C(C)CC)NC(=O)C(CCCN=C(N)N)NC(=O)C(CCCCN)NC(=O)C(CCCN=C(N)N)NC(=O)C(CCCCN)NC(=O)C([C@H](C)CC)NC(=O)C(CCCCN)NC1=O` (some centres undefined) (cyclo(A[ξV][ξL][ξK][ξV][ξA][ξL][ξI][ξK][X21][ξK][ξR][ξK][ξR][ξI])), which GI50 is on record?
A: Its GI50 is 361 nM.

Q: What about the TGI of the same molecule?
A: The TGI was 1420 nM.

Q: How did the GI50 turn out when `Cc1[nH]nc2c1N=C(c1ccccc1Cl)c1cc([N+](=O)[O-])ccc1N2` was run?
A: The GI50 was 242 nM.

Q: What about the TGI of the same molecule?
A: Its TGI is greater than 16800 nM.

Q: Which results are given for `CN(C)CCCn1c2nc(=O)[nH]c(=O)c-2nc2cc(Cl)c(Cl)cc21`?
A: GI50: 772 nM; TGI: 2130 nM

Q: With `O=C(COc1cccc(/C=C2\CSc3ccccc3C2=O)c1)c1ccc(Cl)cc1` as the molecule, how does the GI50 read?
A: The GI50 was 1500 nM.

Q: And the TGI?
A: Its TGI is 3450 nM.

Q: `COc1ccc(-c2csc(NC(=O)c3cc(O)c(O)c(O)c3)n2)cc1` was tested. Which GI50 did it give?
A: Its GI50 is 6940 nM.

Q: And the TGI?
A: The TGI was 29500 nM.

Q: Which GI50 does the source give for `OCc1ccc(N(CCN2CCCC2)Cc2ccc(F)cc2)cc1Cl` here?
A: Its GI50 is 1200 nM.

Q: What about the TGI of the same molecule?
A: The TGI was 3280 nM.

Q: How did the GI50 turn out when `O=C(Nc1cccc(-n2cc(-c3ccncc3)c(-c3ccc(O)c(Cl)c3)n2)c1)Nc1cccc(C(F)(F)F)c1` was run?
A: Its GI50 is 1850 nM.

Q: And the TGI?
A: The TGI was 6170 nM.

Q: Which results are given for `N#C/C(=C\c1ccc(Br)cc1)n1nnc2ccccc21`?
A: GI50: 566 nM; TGI: 2220 nM

Q: How did the GI50 turn out when `CCSc1nnc(-c2ccc3ccccc3c2O)n1-c1ccc(Cl)cc1` was run?
A: Its GI50 is 3590 nM.

Q: What about the TGI of the same molecule?
A: Its TGI is greater than 100000 nM.

Q: How did the GI50 turn out when `COc1ccc2c(c1)C1(C(=O)N2)C(C#N)=C(c2ccccc2)Nc2c1c(-c1ccccc1)nn2-c1ccccc1` (centres undefined) was run?
A: The GI50 was 2930 nM.

Q: What about the TGI of the same molecule?
A: The TGI was 9050 nM.

Q: Which results are given for `Cc1cn(-c2cc(NC(=O)c3cncc(C#Cc4cnc5ccc(O[C@@H]6CCOC6)nn45)c3)cc(C(F)(F)F)c2)cn1`?
A: GI50: 99.8 nM; TGI: 432 nM

Q: `Clc1ccc(Nc2ccnc(NCCCNc3ccnc4cc(Cl)ccc34)n2)cc1` was tested. Which GI50 did it give?
A: The GI50 was 1490 nM.

Q: What about the TGI of the same molecule?
A: Its TGI is 3050 nM.

Q: Which GI50 does the source give for `C=C1C[C@@]2(C)C(CC[C@]3(C)C2CC=C2C4CC(C)(C)C[C@@H](OC(=O)/C(C)=C\C)[C@]4(C(=O)O)CC[C@]23C)C(C)(C)C1=O` (some centres undefined) here?
A: The GI50 was 2020 nM.

Q: And the TGI?
A: The TGI was 5910 nM.

Q: How did the GI50 turn out when `NC(=O)c1ccc2nc3c(n2c1)C(=O)C(=O)c1ccccc1-3` was run?
A: The GI50 was 587 nM.

Q: What about the TGI of the same molecule?
A: The TGI was 1920 nM.

Q: For `Nc1ccccc1NC(=O)c1ccc(NC(=O)C/C=C/c2cccnc2)cn1`, which GI50 is on record?
A: Its GI50 is 982 nM.

Q: And the TGI?
A: The TGI was 13300 nM.

Q: Which results are given for `C=C1C(=O)O[C@H]2[C@H]1CC/C(COC(=O)c1ccccc1)=C\CC[C@@]1(C)O[C@@H]21`?
A: GI50: 464 nM; TGI: 2590 nM

Q: Which GI50 does the source give for `NC1=Nc2cc(OCCCN3Cc4ccccc4C3)c(OCC3CC3)cc2C12CCCC2` here?
A: Its GI50 is 1040 nM.

Q: What about the TGI of the same molecule?
A: The TGI was 2480 nM.

Q: For `COc1ccccc1/C=C/C(=O)/C=C/c1ccccc1OC`, which GI50 is on record?
A: Its GI50 is 1270 nM.

Q: And the TGI?
A: The TGI was 2670 nM.

Q: Which GI50 does the source give for `CCCN(CCSSCCNc1nc(N(C)O)nc(N(C)O)n1)c1nc(N(C)O)nc(N(C)O)n1` here?
A: The GI50 was 2150 nM.

Q: What about the TGI of the same molecule?
A: The TGI was 8860 nM.

Q: With `COc1cc(OC)c(C(=O)/C=C/c2cccc(OC(C)=O)c2)cc1CC=C(C)C` as the molecule, how does the GI50 read?
A: Its GI50 is 1890 nM.

Q: What about the TGI of the same molecule?
A: The TGI was 9720 nM.

Q: `CC(C)Nc1ncc2cc(Oc3ccc(F)cc3F)c(=O)n(C)c2n1` was tested. Which GI50 did it give?
A: Its GI50 is greater than 23000 nM.

Q: And the TGI?
A: The TGI was greater than 25000 nM.

Q: With `O=C(Nc1ccccc1)Nc1cccc(Oc2nnc(Cl)c3ccccc23)c1` as the molecule, how does the GI50 read?
A: The GI50 was 1680 nM.

Q: And the TGI?
A: The TGI was 7580 nM.

Q: With `CCOC(=O)c1cc(C(=O)c2cc(OC)c(OC)c(OC)c2)n2ccccc12` as the molecule, how does the GI50 read?
A: Its GI50 is 93.9 nM.

Q: What about the TGI of the same molecule?
A: The TGI was 89600 nM.

Q: For `CCOC(=O)Nc1nc2c(C)cccc2s1`, which GI50 is on record?
A: Its GI50 is 28700 nM.

Q: And the TGI?
A: Its TGI is greater than 100000 nM.

Q: What does the source list for `Cc1ccc(Sc2sc(-c3ccccc3)nc2[P+](c2ccccc2)(c2ccccc2)c2ccccc2)cc1`?
A: GI50: 222 nM; TGI: 674 nM

Q: Which GI50 does the source give for `Nc1ncnc2c1cnn2Cc1ccc(Cl)cc1` here?
A: Its GI50 is 44700 nM.

Q: What about the TGI of the same molecule?
A: Its TGI is greater than 100000 nM.

Q: What does the source list for `C[C@H](N)C(=O)N1C[C@H](CCCB(O)O)[C@](N)(C(=O)O)C1`?
A: GI50: > 100000 nM; TGI: > 100000 nM

Q: Which results are given for `CN1CCN(c2ccc(C(=O)Nc3cc(-c4cccc(NS(=O)(=O)c5ccccc5)c4)[nH]n3)cc2)CC1`?
A: GI50: 4840 nM; TGI: 14000 nM

Q: For `COc1ccc2c(c1)/C(=C/c1cc(OC)c(OC)c(OC)c1)C(=O)N2C`, which GI50 is on record?
A: The GI50 was 14600 nM.

Q: What about the TGI of the same molecule?
A: Its TGI is greater than 100000 nM.

Q: Which results are given for `CNCCCNCCCN1C(=O)c2ccc3c4c(ccc(c24)C1=O)C(=O)N(CCCNCc1ccccc1OC)C3=O`?
A: GI50: 1000 nM; TGI: 2770 nM

Q: `C=C1C(=O)O[C@H]2[C@H]1CC/C(Cn1cc(-c3cc(C)c(C)cc3C)nn1)=C\CC[C@@]1(C)O[C@@H]21` was tested. Which GI50 did it give?
A: Its GI50 is 530 nM.

Q: And the TGI?
A: Its TGI is 2060 nM.
